Reference: patent US9539229B2, “Intestinal tract-protecting agent containing hydroxylated fatty acid” (KYOTO UNIVERSITY, priority 2013, dated 2017)

Tests used:
[1] = system: tight junction-related factors in large intestinal tissues; assay: Gene expression of tight junction-related factors in large intestinal tissues of DSS-induced enteritis model mouse (real-time PCR); format: in vivo, BALB/c mice; settings: oral 100 nmol/day, FIG. 10
Procedure: (§1) BALB/c mice (♀, 6-week-old) were purchased from Charles River Japan (Kanagawa, Japan), and all experiment plans were carried out in accordance with Hiroshima University, Animal Experiment Rule (No. C10-17). Acute colitis was induced by allowing free intake of 3.5% (w/v) DSS (molecular weight 36000-50000; MP Biomedicals, Aurora, Ohio, USA) for 5 days. To evaluate the effect of HYA and HYB on large intestine, 100 μL of a suspension of HYA or HYB (each 100 nmol) was orally administered to the mice. This administration was performed every day for total 10 days, for 5 days before DSS administration and 5 days after the start of the administration. The symptoms of colitis were evaluated every day based on a decrease in body weight, condition of feces and bleeding from the anus. After administration of DSS for 5 days, the mouse was sacrificed, and the length of the large intestine was measured. Thereafter, RNA was extracted from the large intestine tissue by using RNeasy Mini Kit (Qiagen, Maryland, Md., USA). Paraffin section (7 μm) of the large intestine tissue was produced, stained with hematoxylin-eosin, and histochemically evaluated. The extracted RNA was reverse-transcribed using a high-capacity cDNA reverse transcription kit (Life Technologies) to give cDNA, and real-time PCR analysis was performed using a KAPA SYBR FAST ABI PRISM qPCR kit (Kapa Biosystems). As the primer, oligoDNA pairs of nucleotide sequences were used: SEQ ID NOs: 5 and 6 for Claudin-1, SEQ ID NOs: 13 and 14 for Claudin-3, SEQ ID NOs: 15 and 16 for Claudin-4, SEQ ID NOs: 7 and 8 for ZO-1, SEQ ID NOs: 17 and 18 for ZO-2, SEQ ID NOs: 9 and 10 for Occludin, and SEQ ID NOs: 11 and 12 for MLCK.

[2] = system: IL-8 production in Caco-2 cells; assay: IL-8 production in Caco-2 monolayer cells stimulated with IFN-γ and TNF-α (ELISA); format: cell-based, human; settings: 50 μM, IFN-γ and TNF-α stimulation, outer side culture medium 6 hr after TNF-α addition, FIG. 3A
Procedure: (§2) Caco-2 cells were placed in a 75 cm^2 tissue culture flask, and cultured up to about 80% confluence at 37° C. The cells were inoculated in a 12-well transwell (Transwell (registered trade mark)) cell culture chamber (permeable membrane; diameter 12 mm, pore size 0.4 μm) at a cell concentration of 2×10^5 cells/cm^2, and cultured at 37° C. for 14 days under 5% CO2 atmosphere to give Caco-2 monolayer cells. Furthermore, to verify whether or not tight junction is sufficiently formed, Caco-2 monolayer cells having transepithelial electrical resistance (TER) of about 900-1,000 Ωcm^2 or more were used for the assay. […]
(§3) To the inner side culture medium of each well of the Caco-2 monolayer cells prepared by the aforementioned method was added a solution of HYA, HYB, KetoA, KetoB or KetoC (each 50 μM concentration, 500 μL), and the mixture was cultured for 24 hr. […] TNF-α was added to 50 ng/mL, the mixture was further cultured for 6 hr, and the below-mentioned intestinal tract barrier protection effect was evaluated. […]
(§4) The intestinal tract barrier protection effect by test fatty acid solution was compared using transepithelial electrical resistance (TER) value (Ω·cm^2) and IL-8 production (pg/mL) as indices. With a resistance value measurement system (Millicell-ERS, Millipore) using an Ag/AgCl electrode, each TER value at 0, 1, 2, 3, 4, 5 and 6 hr after addition of TNF-α was measured. […]

[3] = system: IL-8 mRNA in Caco-2 cells; assay: IL-8 mRNA expression in Caco-2 monolayer cells (real-time PCR); format: cell-based, human; settings: IFN-γ and TNF-α, FIG. 3B
Procedure: (§5) To the inner side culture medium of each well of the Caco-2 monolayer cells prepared by the aforementioned method was added a solution of HYA, HYB, KetoA, KetoB or KetoC (each 50 μM concentration, 500 μL), and the mixture was cultured for 24 hr. Then, IFN-γ was added to the outer side culture medium to the final concentration of 50 ng/mL and, after culture for 24 hr, the outer side medium was once removed. TNF-α was added to 50 ng/mL, the mixture was further cultured for 6 hr, and the below-mentioned intestinal tract barrier protection effect was evaluated. Also, a well free of test fatty acid and added with IFN-γ and TNF-α, and a well free of test fatty acid solution, IFN-γ and TNF-α (hereinafter to be also referred to as control) were prepared.
(§6) In the same manner as in the aforementioned Example, HYA was added and, 6 hr later, the Caco-2 monolayer cells were washed 3 times with PBS, and RNA was extracted with TRIzol (registered trade mark) (manufactured by Life Technologies) from the cells. RNA was reverse-transcribed using a high-capacity cDNA reverse transcription kit (Life Technologies) to give cDNA, and real-time PCR analysis was performed using KAPA SYBR FAST ABI PRISM qPCR kit (Kapa Biosystems). […]

[4] = system: tight junction-related factors (MLCK, occludin) in Caco-2 monolayer cells; assay: Gene expression of tight junction-related factors in Caco-2 monolayer cells (real-time PCR); format: cell-based, human; settings: IFN-γ and TNF-α, 6 hr, FIG. 4
Procedure: as §5, §6

Caco-2 monolayer cells = assay: Intestinal tract barrier protection: transepithelial electrical resistance (TER) of Caco-2 monolayer cells stimulated with IFN-γ and TNF-α; format: cell-based, human; settings: 50 μM test fatty acid 24 hr, then IFN-γ 50 ng/mL 24 hr, TNF-α 50 ng/mL, 0-6 hr; FIG. 2
Procedure: as §2, §3, §4

[5] = system: DSS-induced enteritis model mouse; assay: Dextran sodium sulfate (DSS)-induced enteritis model mouse: body weight, feces, large intestine length, histology; format: in vivo, BALB/c mice; settings: 100 nmol orally every day for 10 days, 3.5% DSS for 5 days
Procedure: as §1

SMILES	mRNA expression of all TJ-associated factors (claudin-1, -3, -4, occludin, MLCK, ZO-1, ZO-2) in large intestine tissue ([1]; DSS mouse)	IL-8 production [2]	mRNA expression of IL-8 [3]	mRNA expression of MLCK [4]	mRNA expression of occludin [4]	mRNA expression of MLCK in large intestine tissue ([1]; compared to the DSS mouse)	mRNA expression of occludin in large intestine tissue ([1]; compared to the DSS mouse)	TER relative value (Relative TER) (Caco-2 monolayer cells)	weight loss ([5]; FIG. 5, 6)	stool score ([5]; FIG. 7)	length of large intestine ([5]; FIG. 8)	histochemical evaluation of the large intestine section (H&E staining) ([5]; FIG. 9)
CCCCCCCCC(O)CCCCCCCCC(=O)O (centres unmarked) [HYB, 10-hydroxyoctadecanoic acid]	did not show recovery from abnormal expression of all TJ-associated factors	suppression of IL-8 production was observed	suppressed such increase in the expression									
CCCCC/C=C\CC(O)CCCCCCCCC(=O)O (stereo not drawn) [HYA, 10-hydroxy-cis-12-octadecenoic acid]		suppression of IL-8 production was observed	suppressed such increase in the expression	suppression of an increase in the mRNA expression of MLCK	suppression of an increase in the mRNA expression of MLCK and a decrease in the mRNA expression of occludin	significant recovery of the mRNA expression of occludin and MLCK	significant recovery of the mRNA expression of occludin and MLCK	showed suppression of a decrease in the TER relative value	effective for the suppression of weight loss	recovery of stool score	protection of large intestine	showed recovery of tissue damage
